Laboratory results reported in patent publication US6887661B1, “Recombinant bHLH-PAS/JHR polypeptide and its use to screen potential insecticides” (American Cyanamid Company, priority 1997, dated 2005).

How the values were obtained:
[1] = tested on: Met mutant Drosophila flies; conditions: cited from earlier work; for resistance to topical application: Met gene mutation
[2] = tested on: JH cytosolic binding protein; conditions: cited from earlier work
[3] = tested on: DNA BD of the glucocorticoid receptor fused to the AhR; conditions: CHO mammalian cells; cited from earlier work
[4] = tested on: GAL4-AhR construct; conditions: yeast cells; construct constitutively active without ligand; cited from earlier work
[5] = tested on: Met^3 flies transformed with genomic fragments; experiment: Methoprene resistance test of progeny of Met^3 transformants (rescue of Met phenotype); format: in vivo, Drosophila; conditions: three diagnostic amounts of methoprene
Experimental: P-element mediated germline transformation was carried out with DNA fragments isolated from phage clones derived from a wild-type genomic library. Genomic fragments were isolated following restriction enzyme digestions of phage obtained from the iso-i strain genomic library. (Tamkun et al. Proc. Natl. Acad. Sci. USA 81:5140 (1984)). Fragments were either subcloned into Bluescript (Stratagene Co., Ca.), then excised with an EcoRI-NotI double digest and subcloned into the pCaSpeR 4 transformation vector (Thummel et al. Drosophila Inform. Serv. 71:150 (1992)), or were subcloned directly into the pCaSpeR 4 vector. Purified plasmids together with pp25.1wc transformation “helper” DNA in a ratio of 2-3:1 were injected into dechorionated ywMet^3 embryos as described. (A. Spradling in Drosophila—A Practical Approach (D. B. Roberts, Ed. IRL, Oxford, 1986, page 175). Go progeny were individually crossed with y w Met^3, and transformants recognized by restoration of eye color ranging from light orange to red. For each DNA fragment, 3-5 transformants from separate Go females were recovered and their progeny tested for methoprene resistance.
Progeny of transformants were tested on three diagnostic amounts of methoprene as described in Wilson, Arch. Insect Biochem. Physiol. 32:641 (1996)). […]

[6] = tested on: Drosophila; conditions: JH analog insecticide; cited from earlier work

COC(=O)/C=C(\C)CC/C=C(\C)CC[C@H]1OC1(C)C [JH III, [R-(E,E)]-9-(3,3-dimethyloxiranyl)-3,7-dimethyl-2,6-nonadienoic acid methyl ester]
resistance to topical application [1]: resistance | binding to cytosolic juvenile hormone-binding protein ([2]; Drosophila melanogaster cytosolic protein): saturable, high-affinity binding | lower binding affinity of JH cytosolic binding protein from Met flies than from Met+ flies ([2]; Met flies versus Met+ flies): 10 fold

COC(=O)/C=C(\C)CC[C@@H]1O[C@@]1(C)CC[C@H]1OC1(C)C [JH bisepoxide]
resistance to topical application [1]: resistance

Clc1cc2c(cc1Cl)Oc1cc(Cl)c(Cl)cc1O2 [dioxin]
expression of reporter gene linked to a glucocorticoid response element [3]: induced expression of a reporter gene | transactivation of LacZ reporter gene by GAL4-AhR construct [4]: enhanced transactivation

CCOC(=O)NCCOc1ccc(Oc2ccccc2)cc1 [fenoxycarb]
resistance to topical application [1]: resistance

COC(C)(C)CCC[C@H](C)C/C=C/C(C)=C/C(=O)OC(C)C [methoprene, [E,E]-1-methoxy-3,7,11-trimethyl-2,4-dodecadienoic acid 1-methylethyl ester]
resistance to both the toxic and morphogenetic effects ([1]; Met mutant versus wild-type flies): ≤ 100 fold | resistance to both the toxic and morphogenetic effects conferred by Met^A3 and Met^K17 alleles ([1]; P-element alleles Met^A3 and Met^K17): conferred resistance | level of methoprene resistance compared with Met^3 ([5]; Met^3 transformants with fragments St-X and K-H): undiminished | methoprene resistance after transformation ([5]; Met^3 transformed with the 6.234 Kb St-H fragment): resistance was lost | toxicity to Drosophila [6]: high toxicity

CC(COc1ccc(Oc2ccccc2)cc1)Oc1ccccn1 (stereo not shown) [pyriproxyfen]
resistance to topical application [1]: resistance
